Assay results published in US11007136B2, “Cosmetic composition for wrinkle reduction containing gypenoside isolated from Gynostemma pentaphyllum” (CELLTRION INC., priority 2015, dated 2021).

Assays:
[1] = Stability of the fraction in raw material solution (HPLC content of UL4, UL5); type: physicochemical; conditions: for content stability Results: over 12 weeks
Method: A solution obtained by dissolving powder of the Gynostemma pentaphyllum gypenoside fraction at a concentration of 4% in 100 mL of a mixed solvent of propylene glycol, glycerin and distilled water at a ratio of 5:3:2 was used to identify stability of the Gynostemma pentaphyllum gypenoside fraction in a raw material state. While the solution was being stored under a condition of 4° C., 30° C. and 45° C. and sunlight for 12 weeks, changes with passage of time (% compared to an initial content) in the gypenosides UL4 and UL5, which were index ingredients for quantification out of the Gynostemma pentaphyllum gypenosides, were observed through an HPLC analysis and results thereof were indicated in Table 3.

[2] = test system: human dermal fibroblast neonatal; experiment: Cytotoxicity test (MTT); type: cell-based; conditions: for HDFn Viability: 48 h, % control
Method: A human dermal fibroblast neonatal (Cascade Co.) was inoculated into a 24-well microplate (5×10^4 cells/well) by using a medium, in which Dulbeco's Modified Eagle's Medium (DMEM) was supplemented with 10% fetal bovine serum, thus being cultured under a condition of 37° C. and 5% CO2 for 24 hours. Then, the same was replaced with a serum-free DMEM medium and cultured for 24 hours, thus treating the Gynostemma pentaphyllum gypenoside fraction obtained from the Example 1 and the gypenosides UL4 and UL5 isolated therefrom, respectively. After being cultured for 48 hours, an MTT solution was added thereto, thus being cultured for four hours. The medium was removed therefrom and DMSO was added thereto, thus dissolving an MTT formazan. The MTT formazan dissolved in the DMSO was taken out and an optical density thereof was measured at 570 nm, thus being compared to a group without sample treatment and indicated as % control.

[3] = Titer stability of UL4 and UL5 within formulations (HPLC); type: physicochemical; conditions: for content stability Result: over 12 weeks
Method: As shown in Formulation Examples 1, 2 and 3, cosmetic compositions of a high viscosity emulsified formulation, a low viscosity emulsified formulation and a solubilized formulation, respectively comprising 0.2% of the Gynostemma pentaphyllum gypenoside fraction, were stored under a condition of 4 CC, 30 CC, 45° C. and sunlight for 12 weeks and changes with passage of time (% compared to an initial content) in the gypenosides UL4 and UL5, which were index ingredients for quantification out of the Gynostemma pentaphyllum gypenoside ingredients, were observed through an HPLC analysis, and results thereof were indicated in Tables 10 to 12.

CC(C)=CC1C[C@](O)([C@H]2CC[C@]3(C)[C@@H]2CC[C@@H]2[C@@]4(C=O)CC[C@H](O[C@@H]5OC[C@H](O)[C@H](O[C@@H]6OC[C@@H](O)[C@H](O)[C@H]6O)[C@H]5O[C@@H]5O[C@@H](C)[C@H](O)[C@@H](O)[C@H]5O)C(C)(C)[C@@H]4CC[C@]23C)[C@H](O)O1 (stereo partly drawn) [Gypenoside UL4, (23ξ)-3β,20β,21α-trihydroxy-19-oxo-21,23-epoxy-dammar-24-ene-3-O-[α-L-rhamnopyranosyl (1→2)][β-D-xylopyranosyl (1→3)]-α-L-arabinopyranoside]
content, % compared to an initial content ([1]; 4° C., 1 week): 100.2%
content, % compared to an initial content ([1]; 4° C., 2 weeks): 98.1%
content, % compared to an initial content ([1]; 4° C., 4 weeks): 96.9%
content, % compared to an initial content ([1]; 4° C., 8 weeks): 98.3%
content, % compared to an initial content ([1]; 4° C., 12 weeks): 96.1%
content stability Results ([1]; 4° C.): Stable
content, % compared to an initial content ([1]; 30° C., 1 week): 102.8%
content, % compared to an initial content ([1]; 30° C., 2 weeks): 99.9%
content, % compared to an initial content ([1]; 30° C., 4 weeks): 98.7%
content, % compared to an initial content ([1]; 30° C., 8 weeks): 96.5%
content, % compared to an initial content ([1]; 30° C., 12 weeks): 96.6%
content stability Results ([1]; 30° C.): Stable
content, % compared to an initial content ([1]; 45° C., 1 week): 97.1%
content, % compared to an initial content ([1]; 45° C., 2 weeks): 96.3%
content, % compared to an initial content ([1]; 45° C., 4 weeks): 102.7%
content, % compared to an initial content ([1]; 45° C., 8 weeks): 97.5%
content, % compared to an initial content ([1]; 45° C., 12 weeks): 102.4%
content stability Results ([1]; 45° C.): Stable
content, % compared to an initial content ([1]; Sunlight, 1 week): 97.6%
content, % compared to an initial content ([1]; Sunlight, 2 weeks): 96.6%
content, % compared to an initial content ([1]; Sunlight, 4 weeks): 96.6%
content, % compared to an initial content ([1]; Sunlight, 8 weeks): 98.1%
content, % compared to an initial content ([1]; Sunlight, 12 weeks): 97.1%
content stability Results ([1]; Sunlight): Stable
HDFn Viability ([2]; 5 ug/ml): 98%
HDFn Viability ([2]; 10 ug/ml): 100%
HDFn Viability ([2]; 50 ug/ml): 106%
cytotoxicity ([2]; at concentrations promoting procollagen synthesis): did not show any cytotoxicity
content, % compared to an initial content ([3]; High viscosity emulsified formulation, 4° C., 1 week): 101.9%
content, % compared to an initial content ([3]; High viscosity emulsified formulation, 4° C., 2 weeks): 95.9%
content, % compared to an initial content ([3]; High viscosity emulsified formulation, 4° C., 4 weeks): 102%
content, % compared to an initial content ([3]; High viscosity emulsified formulation, 4° C., 8 weeks): 101.4%
content, % compared to an initial content ([3]; High viscosity emulsified formulation, 4° C., 12 weeks): 104.1%
content stability Result ([3]; High viscosity emulsified formulation, 4° C.): Stable
content, % compared to an initial content ([3]; High viscosity emulsified formulation, 30° C., 1 week): 105.2%
content, % compared to an initial content ([3]; High viscosity emulsified formulation, 30° C., 2 weeks): 103.1%
content, % compared to an initial content ([3]; High viscosity emulsified formulation, 30° C., 4 weeks): 104.4%
content, % compared to an initial content ([3]; High viscosity emulsified formulation, 30° C., 8 weeks): 105.7%
content, % compared to an initial content ([3]; High viscosity emulsified formulation, 30° C., 12 weeks): 108.2%
content stability Result ([3]; High viscosity emulsified formulation, 30° C.): Stable
content, % compared to an initial content ([3]; High viscosity emulsified formulation, 45° C., 1 week): 105.3%
content, % compared to an initial content ([3]; High viscosity emulsified formulation, 45° C., 2 weeks): 108.2%
content, % compared to an initial content ([3]; High viscosity emulsified formulation, 45° C., 4 weeks): 107.6%
content, % compared to an initial content ([3]; High viscosity emulsified formulation, 45° C., 8 weeks): 108.1%
content, % compared to an initial content ([3]; High viscosity emulsified formulation, 45° C., 12 weeks): 107.1%
content stability Result ([3]; High viscosity emulsified formulation, 45° C.): Stable
content, % compared to an initial content ([3]; High viscosity emulsified formulation, Sunlight, 1 week): 102.4%
content, % compared to an initial content ([3]; High viscosity emulsified formulation, Sunlight, 2 weeks): 99.8%
content, % compared to an initial content ([3]; High viscosity emulsified formulation, Sunlight, 4 weeks): 101.2%
content, % compared to an initial content ([3]; High viscosity emulsified formulation, Sunlight, 8 weeks): 99.4%
content, % compared to an initial content ([3]; High viscosity emulsified formulation, Sunlight, 12 weeks): 103.6%
content stability Result ([3]; High viscosity emulsified formulation, Sunlight): Stable
content, % compared to an initial content ([3]; Low viscosity emulsified formulation, 4° C., 1 week): 100.1%
content, % compared to an initial content ([3]; Low viscosity emulsified formulation, 4° C., 2 weeks): 102.4%
content, % compared to an initial content ([3]; Low viscosity emulsified formulation, 4° C., 4 weeks): 101.2%
content, % compared to an initial content ([3]; Low viscosity emulsified formulation, 4° C., 8 weeks): 94.9%
content, % compared to an initial content ([3]; Low viscosity emulsified formulation, 4° C., 12 weeks): 94.1%
content stability Result ([3]; Low viscosity emulsified formulation, 4° C.): Stable
content, % compared to an initial content ([3]; Low viscosity emulsified formulation, 30° C., 1 week): 105.0%
content, % compared to an initial content ([3]; Low viscosity emulsified formulation, 30° C., 2 weeks): 101.8%
content, % compared to an initial content ([3]; Low viscosity emulsified formulation, 30° C., 4 weeks): 101.6%
content, % compared to an initial content ([3]; Low viscosity emulsified formulation, 30° C., 8 weeks): 104.1%
content, % compared to an initial content ([3]; Low viscosity emulsified formulation, 30° C., 12 weeks): 105.2%
content stability Result ([3]; Low viscosity emulsified formulation, 30° C.): Stable
content, % compared to an initial content ([3]; Low viscosity emulsified formulation, 45° C., 1 week): 101.9%
content, % compared to an initial content ([3]; Low viscosity emulsified formulation, 45° C., 2 weeks): 106.2%
content, % compared to an initial content ([3]; Low viscosity emulsified formulation, 45° C., 4 weeks): 105.9%
content, % compared to an initial content ([3]; Low viscosity emulsified formulation, 45° C., 8 weeks): 95.6%
content, % compared to an initial content ([3]; Low viscosity emulsified formulation, 45° C., 12 weeks): 99.3%
content stability Result ([3]; Low viscosity emulsified formulation, 45° C.): Stable
content, % compared to an initial content ([3]; Low viscosity emulsified formulation, Sunlight, 1 week): 96.3%
content, % compared to an initial content ([3]; Low viscosity emulsified formulation, Sunlight, 2 weeks): 99.5%
content, % compared to an initial content ([3]; Low viscosity emulsified formulation, Sunlight, 4 weeks): 100.5%
content, % compared to an initial content ([3]; Low viscosity emulsified formulation, Sunlight, 8 weeks): 99.8%
content, % compared to an initial content ([3]; Low viscosity emulsified formulation, Sunlight, 12 weeks): 102%
content stability Result ([3]; Low viscosity emulsified formulation, Sunlight): Stable
content, % compared to an initial content ([3]; Solubilized formulation, 4° C., 1 week): 98.8%
content, % compared to an initial content ([3]; Solubilized formulation, 4° C., 2 weeks): 91.9%
content, % compared to an initial content ([3]; Solubilized formulation, 4° C., 4 weeks): 98.7%
content, % compared to an initial content ([3]; Solubilized formulation, 4° C., 8 weeks): 97.6%
content, % compared to an initial content ([3]; Solubilized formulation, 4° C., 12 weeks): 99.5%
content stability Result ([3]; Solubilized formulation, 4° C.): Stable
content, % compared to an initial content ([3]; Solubilized formulation, 30° C., 1 week): 100.0%
content, % compared to an initial content ([3]; Solubilized formulation, 30° C., 2 weeks): 103.2%
content, % compared to an initial content ([3]; Solubilized formulation, 30° C., 4 weeks): 102.7%
content, % compared to an initial content ([3]; Solubilized formulation, 30° C., 8 weeks): 98.5%
content, % compared to an initial content ([3]; Solubilized formulation, 30° C., 12 weeks): 104.5%
content stability Result ([3]; Solubilized formulation, 30° C.): Stable
content, % compared to an initial content ([3]; Solubilized formulation, 45° C., 1 week): 102.8%
content, % compared to an initial content ([3]; Solubilized formulation, 45° C., 2 weeks): 101.6%
content, % compared to an initial content ([3]; Solubilized formulation, 45° C., 4 weeks): 94.2%
content, % compared to an initial content ([3]; Solubilized formulation, 45° C., 8 weeks): 97.2%
content, % compared to an initial content ([3]; Solubilized formulation, 45° C., 12 weeks): 94.9%
content stability Result ([3]; Solubilized formulation, 45° C.): Stable
content, % compared to an initial content ([3]; Solubilized formulation, Sunlight, 1 week): 98.8%
content, % compared to an initial content ([3]; Solubilized formulation, Sunlight, 2 weeks): 94.8%
content, % compared to an initial content ([3]; Solubilized formulation, Sunlight, 4 weeks): 98.4%
content, % compared to an initial content ([3]; Solubilized formulation, Sunlight, 8 weeks): 98%
content, % compared to an initial content ([3]; Solubilized formulation, Sunlight, 12 weeks): 94.6%
content stability Result ([3]; Solubilized formulation, Sunlight): Stable
